# Patent publication US20130123107A1, “Use of Adjuvants to Improve Abscisic Acid Performance” (Valent BioSciences Corporation, priority 2007, published 2013)
# Structures can show the parent of a compound that is named as a salt.
# Tests used:
# [1] = test system: Crimson seedless grapes; assay: grape coloring field study, ABA with or without Latron B-1956; type: in vivo; details: for Harvest yield (%): harvest at 64 days after treatment, yield percent with sufficient color
# Protocol: (§1) A grape coloring field study was conducted at Caruthers, Calif., ABA alone at 100 or 200 ppm or its combination with 0.05% Latron B-1956 was foliar applied to Crimson seedless grapes. Number of clusters, with color was counted on a weekly basis, beginning at 21 days after treatment. Percentage of clusters with color was calculated. Grape yield was harvested at 64 days after treatment.
# (§2) All experiments were conducted using a randomized complete block experimental design. Data were analyzed by analysis of variance. Duncan's new multiple range tests at α-005 were used for mean separations.
# The effect of 0.05% Latron B-1956 on ABA (100 or 200 ppm) performance in grape coloration was examined (Table 15). Addition of Latron B-1956 increased the percent clusters with color for ABA at 100 or 200 ppm after application and increased the harvest yield percent with sufficient color. ABA at 200 ppm with or without Latron 13-1956 had more color and greater yield than at 100 ppm.
# [2] = test system: Crimson seedless grapes; assay: grape coloring field study, ABA with or without Brij 98; type: in vivo; details: for Harvest yield (%): harvest at 64 days after treatment, yield percent with sufficient color
# Protocol: as §1, with “Calif.” for “Calif.,”, “Brij 98” for “Latron B-1956”, “clusters” for “clusters,”
# as §2
# The effect of 0.05% Brij 98 on ABA (100 or 200 ppm) performance in grape coloration was examined in the field (Table 12). Addition of Brij 98 increased the percent of clusters with color for ABA at 100 or 200 ppm after application and increased the harvest yield percent with sufficient color. Treatment with 200 ppm ABA had more colored clusters and yield.
# [3] = test system: tomato leaf transpiration; assay: tomato leaf transpiration inhibition bioassay; type: in vivo, Tomato (variety: Rutgers)
# Excerpt: The compositions of the present invention improve ABA effectiveness by incorporating a surfactant, and optionally a nitrogen-containing fertilizer together with an effective amount of the plant growth regulator abscisic acid (S-ABA; ABA; S-(+)-abscisic acid; +-ABA, (+)-(S)-cis, trans-abscisic acid, (+)-(S)-cis,trans-ABA; S-ABA; (S)-5-(1-hydroxy-2,6,6,-trimethyl-4-oxo-2-cyclohexen-1-yl)-3-methyl-(2Z,4E)-pentadienoic acid; CAS registry no, [21293-29-8]). ABA effectiveness may be measured experimentally by quantifying the inhibition of transpiration in tomato leaves. This is a reliable laboratory bioassay of the level of ABA activity.
# Preparation of plant specimens for use in the treatment studies of the examples described was carried out as follows. Tomato (variety: Rutgers) seeds were sown in an 18-cell flat filled with Promix PGX (available from Premier Horticulture Inc. Quakertown, Pa.) and grown for 3 weeks to allow for germination and initial growth. Plants were then transplanted into pots (18 cm in diameter and 18 cm in height), filled with Promix BX (available from Premier Horticulture Inc. Quakertown, Pa.), and grown for one or two more weeks before treatment, depending on temperature and available light. Plants received daily irrigation and weekly fertilizer (1 g/L all purpose fertilizer 20-20-20, available from The Scotts Company, Marysville, Ohio).
# All treatment solutions were prepared with distilled water, ABA (95% active ingredient) is available from Lomon BioTechnology Co., Ltd. (Shichuan, China). […]
# Unless otherwise specified, when a surfactant was employed, it was incorporated into the 250-ppm ABA treatment solution at a concentration of 0.05% to 0.5% (v/v).
# ABA solutions and blank treatments were applied to the aerial parts of tomato plant leaves at the rate of 20 mL per 6 plants. Plants were then placed in a transparent chamber with humidity controlled within the range of 40 to 60% relative humidity. Leaf transpiration rates were measured at 1, 2 and 3 days; at 1, 2, 3 and 4 days; or at 1, 2, 3, 4 and 7 days after treatment. Measurements were conducted using a LI-1600 Steady State Porameter (LI-Cor, Lincoln, Nebr.). Each day the transpiration rate of the plants of each treatment group was normalized to the percentage of the transpiration rate of untreated plants (plants sprayed with water only) in order to control for day-to-day variability caused by changes of environmental conditions such as light intensity and temperature. In some cases, data of each plant was averaged over a 3-day period to balance the short term and long-term effect of ABA on tomato leaf transpiration as well as to control for experimental variability.
# as §2
# [4] = 100 ppm ABA foliar applied, 21 days after application
# [5] = 100 ppm ABA foliar applied, 27 days after application
# [6] = 100 ppm ABA foliar applied, 35 days after application
# [7] = 100 ppm ABA foliar applied, 43 days after application
# [8] = 100 ppm ABA foliar applied, 50 days after application
# [9] = 100 ppm ABA foliar applied, 56 days after application
# [10] = 100 ppm ABA foliar applied, 62 days after application
# [11] = 100 ppm ABA foliar applied, 64 days after application
# [12] = 200 ppm ABA foliar applied, 21 days after application
# [13] = 200 ppm ABA foliar applied, 27 days after application
# [14] = 200 ppm ABA foliar applied, 35 days after application
# [15] = 200 ppm ABA foliar applied, 43 days after application
# [16] = 200 ppm ABA foliar applied, 50 days after application
# [17] = 200 ppm ABA foliar applied, 56 days after application
# [18] = 200 ppm ABA foliar applied, 62 days after application
# [19] = 200 ppm ABA foliar applied, 64 days after application
# [20] = 250 ppm ABA or ABA ammonium salt, 1 day after treatment (Table 7)
# [21] = 250 ppm ABA or ABA ammonium salt, 2 days after treatment (Table 7)
# [22] = 250 ppm ABA or ABA ammonium salt, 3 days after treatment (Table 7)
# [23] = 250 ppm ABA or ABA ammonium salt, average of days 1-3 after treatment (Table 7)
# [24] = 250 ppm ABA or salt at rates equivalent to 250 ppm ABA, 1 day after treatment (Table 10)
# [25] = 250 ppm ABA or salt at rates equivalent to 250 ppm ABA, 2 days after treatment (Table 10)
# [26] = 250 ppm ABA or salt at rates equivalent to 250 ppm ABA, 3 days after treatment (Table 10)
# [27] = 250 ppm ABA or salt at rates equivalent to 250 ppm ABA, average of days 1-3 (Table 10)
compound,measurement,setting,value
"(S)-5-(1-hydroxy-2,6,6,-trimethyl-4-oxo-2-cyclohexen-1-yl)-3-methyl-(2Z,4E)-pentadienoic acid [ABA]",% clusters with color,[1]; [4],1.8%
same,% clusters with color,[1]; [5],2.7%
same,% clusters with color,[1]; [6],5.7%
same,% clusters with color,[1]; [7],7.5%
same,% clusters with color,[1]; [8],9.4%
same,% clusters with color,[1]; [9],26.1%
same,% clusters with color,[1]; [10],26.2%
same,% clusters with color,[1]; [11],31.2%
same,Harvest yield (%),[1]; 100 ppm ABA foliar applied,25.5%
same,% clusters with color,[1]; [12],7.0%
same,% clusters with color,[1]; [13],10.7%
same,% clusters with color,[1]; [14],17.3%
same,% clusters with color,[1]; [15],20.5%
same,% clusters with color,[1]; [16],22.7%
same,% clusters with color,[1]; [17],47.9%
same,% clusters with color,[1]; [18],50.3%
same,% clusters with color,[1]; [19],56.4%
same,Harvest yield (%),[1]; 200 ppm ABA foliar applied,49.1%
same,% clusters with color,[2]; [4],1.8%
same,% clusters with color,[2]; [5],2.7%
same,% clusters with color,[2]; [6],5.7%
same,% clusters with color,[2]; [7],7.5%
same,% clusters with color,[2]; [8],9.4%
same,% clusters with color,[2]; [9],26.1%
same,% clusters with color,[2]; [10],26.2%
same,% clusters with color,[2]; [11],31.2%
same,Harvest yield (%),[2]; 100 ppm ABA foliar applied,25.5%
same,% clusters with color,[2]; [12],7.0%
same,% clusters with color,[2]; [13],10.7%
same,% clusters with color,[2]; [14],17.3%
same,% clusters with color,[2]; [15],20.5%
same,% clusters with color,[2]; [16],22.7%
same,% clusters with color,[2]; [17],47.9%
same,% clusters with color,[2]; [18],50.3%
same,% clusters with color,[2]; [19],56.4%
same,Harvest yield (%),[2]; 200 ppm ABA foliar applied,49.1%
same,Transpiration rate (% of control),"[3]; 125 ppm ABA, average of first 3 days after treatment",96 % of control
same,Transpiration rate (% of control),[3]; [20],73 % of control
same,Transpiration rate (% of control),[3]; [21],76 % of control
same,Transpiration rate (% of control),[3]; [22],94 % of control
same,"Transpiration rate (% of control), Average",[3]; [23],81 % of control
same,Transpiration rate (% of control),"[3]; 250 ppm ABA or salt at rate equivalent to 250 ppm ABA, 1 day after treatment (Table 8)",71 % of control
same,Transpiration rate (% of control),"[3]; 250 ppm ABA or salt at rate equivalent to 250 ppm ABA, 2 days after treatment (Table 8)",75 % of control
same,Transpiration rate (% of control),"[3]; 250 ppm ABA or salt at rate equivalent to 250 ppm ABA, 3 days after treatment (Table 8)",88 % of control
same,"Transpiration rate (% of control), Average","[3]; 250 ppm ABA or salt at rate equivalent to 250 ppm ABA, average of days 1-3 (Table 8)",78 % of control
same,Transpiration rate (% of control),[3]; [24],59 % of control
same,Transpiration rate (% of control),[3]; [25],71 % of control
same,Transpiration rate (% of control),[3]; [26],77 % of control
same,"Transpiration rate (% of control), Average",[3]; [27],69 % of control
same,Transpiration rate (% of control),"[3]; 250 ppm ABA, 1 day after treatment (Table 2)",76 % of control
same,Transpiration rate (% of control),"[3]; 250 ppm ABA, 1 day after treatment (Table 5)",82 % of control
same,Transpiration rate (% of control),"[3]; 250 ppm ABA, 1 day after treatment (Table 6)",71 % of control
same,Transpiration rate (% of control),"[3]; 250 ppm ABA, 1 day after treatment (Table 11)",83 % of control
same,Transpiration rate (% of control),"[3]; 250 ppm ABA, 1 day after treatment (Table 13)",74 % of control
same,Transpiration rate (% of control),"[3]; 250 ppm ABA, 1 day after treatment (Table 14)",74 % of control
same,Transpiration rate (% of control),"[3]; 250 ppm ABA, 2 days after treatment (Table 2)",99 % of control
same,Transpiration rate (% of control),"[3]; 250 ppm ABA, 2 days after treatment (Table 5)",91 % of control
same,Transpiration rate (% of control),"[3]; 250 ppm ABA, 2 days after treatment (Table 6)",84 % of control
same,Transpiration rate (% of control),"[3]; 250 ppm ABA, 2 days after treatment (Table 11)",85 % of control
same,Transpiration rate (% of control),"[3]; 250 ppm ABA, 2 days after treatment (Table 14)",82 % of control
same,Transpiration rate (% of control),"[3]; 250 ppm ABA, 3 days after treatment (Table 2)",93 % of control
same,Transpiration rate (% of control),"[3]; 250 ppm ABA, 3 days after treatment (Table 5)",90 % of control
same,Transpiration rate (% of control),"[3]; 250 ppm ABA, 3 days after treatment (Table 6)",86 % of control
same,Transpiration rate (% of control),"[3]; 250 ppm ABA, 3 days after treatment (Table 11)",94 % of control
same,Transpiration rate (% of control),"[3]; 250 ppm ABA, 3 days after treatment (Table 13)",95 % of control
same,Transpiration rate (% of control),"[3]; 250 ppm ABA, 3 days after treatment (Table 14)",95 % of control
same,Transpiration rate (% of control),"[3]; 250 ppm ABA, 4 days after treatment (Table 5)",100 % of control
same,Transpiration rate (% of control),"[3]; 250 ppm ABA, 4 days after treatment (Table 6)",90 % of control
same,Transpiration rate (% of control),"[3]; 250 ppm ABA, 4 days after treatment (Table 13)",100 % of control
same,Transpiration rate (% of control),"[3]; 250 ppm ABA, 4 days after treatment (Table 14)",100 % of control
same,"Transpiration rate (% of control), Average","[3]; 250 ppm ABA, average of days 1-3 (Table 11)",87 % of control
same,Transpiration rate (% of control),"[3]; 250 ppm ABA, average of first 3 days after treatment (Table 1)",88 % of control
same,Transpiration rate (% of control),"[3]; 250 ppm ABA, average of first 3 days after treatment (Table 3)",83 % of control
same,Transpiration rate (% of control),"[3]; 250 ppm ABA, average of first 3 days after treatment (Table 4)",96.32 % of control
same,Transpiration rate (% of control),"[3]; 250 ppm ABA, average of first 3 days after treatment (Table 9)",73 % of control
same,Transpiration rate (% of control),"[3]; 500 ppm ABA, average of first 3 days after treatment",74 % of control
same,Transpiration rate (% of control),"[3]; 1000 ppm ABA, average of first 3 days after treatment",68 % of control
same,ABA concentrations to achieve 50% inhibition of transpiration,[3]; calculated from linear regression of relative transpiration (3-day average) on log10 ABA concentration,3328 ppm
"CC1=CC(=O)CC(C)(C)[C@@]1(O)/C=C/C(C)=C\C(=O)O [ABA ammonium salt, Ammonium Salt of (S)-(+)-Abscisic Acid]",Transpiration rate (% of control),[3]; [20],68 % of control
same,Transpiration rate (% of control),[3]; [21],73 % of control
same,Transpiration rate (% of control),[3]; [22],84 % of control
same,"Transpiration rate (% of control), Average",[3]; [23],75 % of control
same,Transpiration rate (% of control),[3]; [24],58 % of control
same,Transpiration rate (% of control),[3]; [25],67 % of control
same,Transpiration rate (% of control),[3]; [26],78 % of control
same,"Transpiration rate (% of control), Average",[3]; [27],68 % of control
